Earlier results as cited in US5093372A, “Novel pharmaceutical composition comprising exifone and water-soluble polymer” (Fujisawa Pharmaceutical Co. Inc., priority 1987, dated 1992).

Assays:
[1] = orally administered as a conventional pharmaceutical composition

solubility in water (in words): sparingly soluble in water
saturated solubility in water (about): 70 to 80 µg/mL
absorption into blood circulation (in words) [1]: poor
bioavailability (in words) [1]: low
Structure (SMILES): O=C(c1cc(O)c(O)c(O)c1)c1ccc(O)c(O)c1O [exifone]
